This note sets out measurements from ChEMBL document CHEMBL1141403, “New adamantane-based spiro 1,2,4-trioxanes orally effective against rodent and simian malaria” (J Med Chem, 2007).

Active and inactive are the calls of the source. No cut-off for these calls is given here.

The test system of the first data set is Plasmodium cynomolgi. The experiment in a line: Antimalarial activity against Plasmodium cynomolgi infected Rhesus monkey at 20 mg/kg peroral dose after 5 days. To be noted: route oral. Type of data set: functional.
As for `C=C(c1ccc2c(c1)Cc1ccccc1-2)C1COC2(OO1)C1CC3CC(C1)CC2C3` (stereo not drawn), the Activity is listed as 100%.

For another data set, the system named is Plasmodium yoelii nigeriensis. The experiment in a line: Antimalarial activity at day 4 against Plasmodium yoelii nigeriensis infected in Swiss mice (Mus musculus) at 96 mg/kg peroral dose. Type of data set: functional. The conditions noted are these: route oral.
In turn, `C=C(C1COC2(OO1)C1CC3CC(C1)CC2C3)C12CC3CC(CC(C3)C1)C2` (stereo not drawn) registered an Activity of 70%.

For `C=C(C1COC2(CCCC2)OO1)C12CC3CC(CC(C3)C1)C2` (stereo not drawn), the Activity is reported as 57%.

Regarding `C=C(c1ccc2ccc3ccccc3c2c1)C1COC2(OO1)C1CC3CC(C1)CC2C3` (stereo not drawn), the Activity was 100%.

On to `C=C(c1ccc2c(ccc3ccccc32)c1)C1COC2(OO1)C1CC3CC(C1)CC2C3` (stereo not drawn), for which the Activity is reported as 100%.

As for `C=C(c1ccc2c(c1)CCCC2)C1COC2(OO1)C1CC3CC(C1)CC2C3` (stereo not drawn), the Activity was 100%.

For `C=C(c1ccc2ccccc2c1)C1COC2(OO1)C1CC3CC(C1)CC2C3` (stereo not drawn), the Activity came out at 100%.

The molecule `C=C(C1COC2(CCCCC2)OO1)C12CC3CC(CC(C3)C1)C2` (stereo not drawn) came in with an Activity of 52%.

Take `C=C(c1cccc2ccccc12)C1COC2(OO1)C1CC3CC(C1)CC2C3` (stereo not drawn): the Activity worked out at 100%.

For `C=C(c1ccccc1)C1COC2(OO1)C1CC3CC(C1)CC2C3` (stereo not drawn), the Activity is recorded as 99%.

In turn, `C=C(c1ccc2c(c1)Cc1ccccc1-2)C1COC2(OO1)C1CC3CC(C1)CC2C3` (stereo not drawn) returned an Activity of 100%.

The test system of another data set is Plasmodium yoelii nigeriensis. Kind of data set: Antimalarial activity against Plasmodium yoelii nigeriensis infected Swiss mice (Mus musculus) at 96 mg/kg intramuscular dose over 4 days. Type of data set: functional.
Conditions: not given
`C=C(C1COC2(OO1)C1CC3CC(C1)CC2C3)C12CC3CC(CC(C3)C1)C2` (stereo not drawn): the Activity is 14%.

`C=C(C1COC2(CCCC2)OO1)C12CC3CC(CC(C3)C1)C2` (stereo not drawn) registered an Activity of 38%.

Regarding `C=C(c1ccc2ccc3ccccc3c2c1)C1COC2(OO1)C1CC3CC(C1)CC2C3` (stereo not drawn), the Activity is reported as 69%.

`C=C(c1ccc2c(ccc3ccccc32)c1)C1COC2(OO1)C1CC3CC(C1)CC2C3` (stereo not drawn) had an Activity of 100%.

Regarding `C=C(c1ccc2c(c1)CCCC2)C1COC2(OO1)C1CC3CC(C1)CC2C3` (stereo not drawn), the Activity was determined as 100%.

The molecule `C=C(c1ccc2ccccc2c1)C1COC2(OO1)C1CC3CC(C1)CC2C3` (stereo not drawn) registered an Activity of 71%.

The molecule `C=C(c1cccc2ccccc12)C1COC2(OO1)C1CC3CC(C1)CC2C3` (stereo not drawn) yielded an Activity of 87%.

In the case of `C=C(c1ccccc1)C1COC2(OO1)C1CC3CC(C1)CC2C3` (stereo not drawn), the Activity was determined as 97%.

The molecule `C=C(c1ccc2c(c1)Cc1ccccc1-2)C1COC2(OO1)C1CC3CC(C1)CC2C3` (stereo not drawn) had an Activity of 100%.

For a further data set, the system named is Mus musculus. The experiment in a line: Survival of Swiss mice (Mus musculus) infected with Plasmodium yoelii nigeriensis at 96 mg/kg, peroral after 28 days. Further details: dose 96 mg/kg. Type of data set: functional, organism-based.
Conditions: not given
On to `C=C(C1COC2(OO1)C1CC3CC(C1)CC2C3)C12CC3CC(CC(C3)C1)C2` (stereo not drawn), for which the outcome was inactive.

On to `C=C(C1COC2(CCCC2)OO1)C12CC3CC(CC(C3)C1)C2` (stereo not drawn), for which the outcome was inactive.

Take `C=C(c1ccc2ccc3ccccc3c2c1)C1COC2(OO1)C1CC3CC(C1)CC2C3` (stereo not drawn): the outcome was Active.

As to `C=C(c1ccc2c(c1)CCCC2)C1COC2(OO1)C1CC3CC(C1)CC2C3` (stereo not drawn), the outcome was Active.

With `C=C(C1COC2(CCCCC2)OO1)C12CC3CC(CC(C3)C1)C2` (stereo not drawn), the result was inactive.

Take `C=C(c1cccc2ccccc12)C1COC2(OO1)C1CC3CC(C1)CC2C3` (stereo not drawn): the outcome was Active.

Consider `C=C(c1ccccc1)C1COC2(OO1)C1CC3CC(C1)CC2C3` (stereo not drawn), for which the outcome was inactive.

Regarding `C=C(c1ccc2c(c1)Cc1ccccc1-2)C1COC2(OO1)C1CC3CC(C1)CC2C3` (stereo not drawn), the outcome was Active.

For another data set, the system named is Plasmodium cynomolgi. The experiment in a line: Antimalarial activity against Plasmodium cynomolgi infected Rhesus monkey at 10 mg/kg intramuscular dose over 4 days. Type of data set: functional, organism-based. Further details: dose 10 mg/kg.
Conditions: not given
With `C=C(c1ccc2c(c1)Cc1ccccc1-2)C1COC2(OO1)C1CC3CC(C1)CC2C3` (stereo not drawn), the result was inactive.

The test system of a further data set is Plasmodium cynomolgi. The experiment in a line: Antimalarial activity against Plasmodium cynomolgi infected Rhesus monkey at 10 mg/kg peroral dose over 4 days. The data set is classed as functional. To be noted: route oral.
For the molecule `C=C(c1ccc2c(c1)Cc1ccccc1-2)C1COC2(OO1)C1CC3CC(C1)CC2C3` (stereo not drawn), the Activity is on record as 100%.

The test system of the next data set is Mus musculus. Kind of data set: Survival of Swiss mice (Mus musculus) infected with Plasmodium yoelii nigeriensis at 48 mg/kg, peroral after 28 days. Set-up: dose 48 mg/kg.
Conditions: not given
The data set is classed as functional, organism-based.
On to `CCO[C@H]1O[C@@H]2O[C@@]3(C)CC[C@H]4[C@H](C)CC[C@@H]([C@H]1C)[C@@]24OO3` [ARTEMOTIL], for which the outcome was Active.

For `C[C@H]1[C@H](OC(=O)CCC(=O)O)O[C@@H]2O[C@@]3(C)CC[C@H]4[C@H](C)CC[C@@H]1[C@@]24OO3` [ARTESUNATE], the outcome was Active.

For `C=C(c1ccc2c(c1)Cc1ccccc1-2)C1COC2(OO1)C1CC3CC(C1)CC2C3` (stereo not drawn), the result was Active.

A further data set concerns Plasmodium yoelii nigeriensis. Kind of data set: Antimalarial activity against Plasmodium yoelii nigeriensis infected Swiss mice (Mus musculus) at 48 mg/kg peroral dose over 4 days. To be noted: route oral. Type of data set: functional.
In turn, `CCO[C@H]1O[C@@H]2O[C@@]3(C)CC[C@H]4[C@H](C)CC[C@@H]([C@H]1C)[C@@]24OO3` [ARTEMOTIL] came in with an Activity of 100%.

Turning to `C[C@H]1[C@H](OC(=O)CCC(=O)O)O[C@@H]2O[C@@]3(C)CC[C@H]4[C@H](C)CC[C@@H]1[C@@]24OO3` [ARTESUNATE], the Activity is reported as 100%.

As for `C=C(c1ccc2ccc3ccccc3c2c1)C1COC2(OO1)C1CC3CC(C1)CC2C3` (stereo not drawn), the Activity turned out to be 100%.

For `C=C(c1ccc2c(ccc3ccccc32)c1)C1COC2(OO1)C1CC3CC(C1)CC2C3` (stereo not drawn), the Activity was determined as 100%.

The molecule `C=C(c1ccc2c(c1)CCCC2)C1COC2(OO1)C1CC3CC(C1)CC2C3` (stereo not drawn) registered an Activity of 100%.

On to `C=C(c1ccc2ccccc2c1)C1COC2(OO1)C1CC3CC(C1)CC2C3` (stereo not drawn), for which the Activity amounted to 100%.

`C=C(c1cccc2ccccc12)C1COC2(OO1)C1CC3CC(C1)CC2C3` (stereo not drawn): the Activity was found to be 100%.

On to `C=C(c1ccc2c(c1)Cc1ccccc1-2)C1COC2(OO1)C1CC3CC(C1)CC2C3` (stereo not drawn), for which the Activity is on record as 100%.

The test system of another data set is Mus musculus. Kind of data set: Survival of Swiss mice (Mus musculus) infected with Plasmodium yoelii nigeriensis at 96 mg/kg, intramuscular after 28 days. Further details: dose 96 mg/kg. Type of data set: functional, organism-based.
Conditions: not given
As for `C=C(C1COC2(OO1)C1CC3CC(C1)CC2C3)C12CC3CC(CC(C3)C1)C2` (stereo not drawn), the outcome was inactive.

As for `C=C(C1COC2(CCCC2)OO1)C12CC3CC(CC(C3)C1)C2` (stereo not drawn), the result was inactive.

In the case of `C=C(c1ccc2ccc3ccccc3c2c1)C1COC2(OO1)C1CC3CC(C1)CC2C3` (stereo not drawn), the outcome was inactive.

For `C=C(c1ccc2ccccc2c1)C1COC2(OO1)C1CC3CC(C1)CC2C3` (stereo not drawn), the outcome was inactive.

As for `C=C(C1COC2(CCCCC2)OO1)C12CC3CC(CC(C3)C1)C2` (stereo not drawn), the result was inactive.

Regarding `C=C(c1cccc2ccccc12)C1COC2(OO1)C1CC3CC(C1)CC2C3` (stereo not drawn), the result was inactive.

As to `C=C(c1ccccc1)C1COC2(OO1)C1CC3CC(C1)CC2C3` (stereo not drawn), the outcome was inactive.

Tested on in a further data set: not listed separately
The experiment in a line: Partition coefficient, log P of the compound. The conditions noted are these: octanol/water. The data set is classed as physicochemical.
`C=C(C1COC2(OO1)C1CC3CC(C1)CC2C3)C12CC3CC(CC(C3)C1)C2` (stereo not drawn) registered a logP of 5.43.

`C[C@H]1[C@H](OC(=O)CCC(=O)O)O[C@@H]2O[C@@]3(C)CC[C@H]4[C@H](C)CC[C@@H]1[C@@]24OO3` [ARTESUNATE] registered a logP of 3.04.

With `C=C(C1COC2(CCCC2)OO1)C12CC3CC(CC(C3)C1)C2` (stereo not drawn), the logP was 4.38.

On to `C=C(c1ccc2ccc3ccccc3c2c1)C1COC2(OO1)C1CC3CC(C1)CC2C3` (stereo not drawn), for which the logP turned out to be 6.65.

`C=C(c1ccc2c(ccc3ccccc32)c1)C1COC2(OO1)C1CC3CC(C1)CC2C3` (stereo not drawn) displayed a logP of 6.65.

On to `C=C(c1ccc2c(c1)CCCC2)C1COC2(OO1)C1CC3CC(C1)CC2C3` (stereo not drawn), for which the logP was 5.96.

As for `C=C(c1ccc2ccccc2c1)C1COC2(OO1)C1CC3CC(C1)CC2C3` (stereo not drawn), the logP came to 5.65.

In turn, `C=C(C1COC2(CCCCC2)OO1)C12CC3CC(CC(C3)C1)C2` (stereo not drawn) showed a logP of 4.79.

As for `C=C(c1cccc2ccccc12)C1COC2(OO1)C1CC3CC(C1)CC2C3` (stereo not drawn), the logP was 5.65.

In the case of `C=C(c1ccccc1)C1COC2(OO1)C1CC3CC(C1)CC2C3` (stereo not drawn), the logP worked out at 4.65.

The molecule `C=C(c1ccc2c(c1)Cc1ccccc1-2)C1COC2(OO1)C1CC3CC(C1)CC2C3` (stereo not drawn) had a logP of 6.39.

A further data set deals with Mus musculus. Kind of data set: Survival of Swiss mice (Mus musculus) infected with Plasmodium yoelii nigeriensis at 24 mg/kg, peroral after 28 days. Further details: dose 24 mg/kg. The data set is classed as functional, organism-based.
Conditions: not given
Take `C[C@H]1[C@H](OC(=O)CCC(=O)O)O[C@@H]2O[C@@]3(C)CC[C@H]4[C@H](C)CC[C@@H]1[C@@]24OO3` [ARTESUNATE]: the result was inactive.

Another data set concerns Plasmodium yoelii nigeriensis. The experiment in a line: Antimalarial activity against Plasmodium yoelii nigeriensis infected Swiss mice (Mus musculus) at 24 mg/kg peroral dose over 4 days. To be noted: route oral. The data set is classed as functional.
Molecule `CCO[C@H]1O[C@@H]2O[C@@]3(C)CC[C@H]4[C@H](C)CC[C@@H]([C@H]1C)[C@@]24OO3` [ARTEMOTIL] registered an Activity of 100%.

`C[C@H]1[C@H](OC(=O)CCC(=O)O)O[C@@H]2O[C@@]3(C)CC[C@H]4[C@H](C)CC[C@@H]1[C@@]24OO3` [ARTESUNATE]: the Activity stood at 100%.

Regarding `C=C(c1ccc2c(c1)Cc1ccccc1-2)C1COC2(OO1)C1CC3CC(C1)CC2C3` (stereo not drawn), the Activity came out at 100%.

In general, logP refers to the decadic logarithm of the partition coefficient of the neutral form, usually between octanol and water.
